Tested on: 624824-186-R-J3-PDC multicell spheroids, viability
Test: Anticancer human tumor 624824-186-R-J3-PDC patient-derived colon adenocarcinoma cell line growth inhibition [PI3K]
Details: for IC50: curve of first compound; for viability, T/C: stronger effect = lower value
Text: Combinatorial screen of targeted agents with the PI3K inhibitors inavolisib, alpelisib, duvelisib, and copanlisib in multi-cell type tumor spheroids
A high-throughput screen of multi-cell type tumor spheroids was designed to identify active combinations of targeted small molecules and PI3K pathway inhibitors. Complex spheroids include a stromal component modeled by human endothelial cells (HUVEC) and fibroblasts modeled by human mesenchymal stem cells (MSCs). The concentration ranges selected for each drug and investigational agent were based upon clinically achievable concentrations if the clinical Cmax of the agent was known.
Compounds. The drugs and investigational agents: inavolisib (NSC800729), alpelisib (NSC765974), duvelisib (NSC772469), copanlisib (NSC816437), ipatasertib (NSC767898), afuresertib (NSC778305), talazoparib (NSC767125), sapanisertib (NSC764658), selumetinib (NSC741078), tovorafenib (DAY101, NSC766906), vemurafenib (NSC761431), ravoxertinib (NSC781343), sotorasib (NSC818433), MRTX1133 (NSC 836407), abemaciclib (NSC 768073), palbociclib (NSC758247), venetoclax (NSC 766270), SY5609 (NSC837396), enzalutamide (NSC755605), and darolutamide (NSC825331), were obtained from the National Cancer Institute (NCI) Developmental Therapeutics Program Chemical Repository. The FDA-approved anticancer drug set is available from the NCI Developmental Therapeutics Program. […] The stock solutions were prepared in dimethyl sulfoxide (DMSO, Sigma-Aldrich, St. Louis, MO, cat. D2650) at 800-fold the tested concentration and stored at -70 degrees C prior to their use. All drugs and investigational agents were tested over a range starting from a high concentration at or near the clinical Cmax and decreasing in half-log increments. If the clinical Cmax for an agent had not been determined, the highest concentration tested was 10 microM.
Cell Culture. All cells were maintained in an incubator at 37 degrees C and 5% CO2 with 95% humidity. The PDC lines were cultured according to standard operating procedures established by the NCI PDMR (https://pdmr.cancer.gov/sops/default.htm). All PDCs were thawed and cultured in Matrigel-coated flasks prepared with a working solution of 1X Ham's F-12 nutrient mix, without supplementation (Invitrogen, Waltham, MA, cat. 11765054), 100 U/mL penicillin-streptomycin (Invitrogen, cat. 15140122), and 2.5% Matrigel (Corning Inc., Corning, NY, cat. 354248) for the first three passages. The 354836-022-R-J1-PDC, 475296-252-R-J1-PDC, and 997726-040-R-J2-PDC lines were cultured in 6A media, which includes advanced DMEM/F-12 (Thermo Fisher Scientific, cat. 12634028), 10 mM HEPES (Thermo Fisher Scientific, cat. 15630080), 1X GlutaMAX supplement (Thermo Fisher Scientific, cat. 35050061), 0.1 mg/mL primocin (InvivoGen, San Diego, CA, cat. ant-pm-2), 10% defined fetal bovine serum, heat inactivated (HyClone Laboratories Inc., Logan, UT, cat. SH30070.03HI), 50% L-WRN conditioned media (ATCC, cat. CRL-3276), 1.25 mM N-Acetyl-L-cysteine (Sigma-Aldrich, cat. A9165), 10 mM nicotinamide (Sigma-Aldrich, cat. N0636), 1X B-27 supplement (Thermo Fisher Scientific, cat. 17504044), 1X N-2 supplement (Thermo Fisher Scientific, cat. 17502048), and 10 microM Y-27632 dihydrochloride (Tocris Bioscience, Bristol, United Kingdom, cat. 1254). The 624824-186-R-J2-PDC line was cultured in 6C/Colon 1B media, which includes all 6A media components plus 50 ng/mL human EGF recombinant protein (Thermo Fisher Scientific, cat. PHG0311). […]

[1] = second compound 0.0316 µM, first compound 0.00316 µM
[2] = second compound 0.0316 µM, first compound 0.01 µM
[3] = second compound 0.0316 µM, first compound 0.0316 µM
[4] = second compound 0.0316 µM, first compound 0.1 µM
[5] = second compound 0.1 µM, first compound 0.00316 µM
[6] = second compound 0.1 µM, first compound 0.01 µM
[7] = second compound 0.1 µM, first compound 0.0316 µM
[8] = second compound 0.1 µM, first compound 0.1 µM
[9] = second compound 0.316 µM, first compound 0.00316 µM
[10] = second compound 0.316 µM, first compound 0.01 µM
[11] = second compound 0.316 µM, first compound 0.0316 µM
[12] = second compound 0.316 µM, first compound 0.1 µM
[13] = second compound 1 µM, first compound 0.00316 µM
[14] = second compound 1 µM, first compound 0.01 µM
[15] = second compound 1 µM, first compound 0.0316 µM
[16] = second compound 1 µM, first compound 0.1 µM
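Note: spheroids exposed to agents for seven days before luminescence read.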
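Throughout, for viability, T/C: luminescent signal used as a stand-in for spheroid viability; percent viability relative to DMSO vehicle control wells taken as 100%.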

Structure (SMILES): CCN1CCN(Cc2ccc(Nc3ncc(F)c(-c4cc(F)c5nc(C)n(C(C)C)c5c4)n3)nc2)CC1 + COc1c(OCCCN2CCOCC2)ccc2c3n(c(=NC(=O)c4cnc(N)nc4)nc12)CCN3
- IC50 (second compound 0.00316 µM): > 1000 nM
- IC50 (second compound 0.01 µM): > 1000 nM
- IC50 (second compound 0.0316 µM): > 1000 nM
- IC50 (second compound 0.1 µM): 59.7 nM
- IC50 (second compound 0.316 µM): < 3.16 nM
- IC50 (second compound 1 µM): < 3.16 nM
- viability, T/C (second compound 0.00316 µM, first compound 0.00316 µM): 99%
- viability, T/C (second compound 0.00316 µM, first compound 0.01 µM): 107%
- viability, T/C (second compound 0.00316 µM, first compound 0.0316 µM): 104%
- viability, T/C (second compound 0.00316 µM, first compound 0.1 µM): 116%
- viability, T/C (second compound 0.00316 µM, first compound 0.316 µM): 107%
- viability, T/C (second compound 0.00316 µM, first compound 1 µM): 94.8%
- viability, T/C (second compound 0.01 µM, first compound 0.00316 µM): 99.2%
- viability, T/C (second compound 0.01 µM, first compound 0.01 µM): 94.9%
- viability, T/C (second compound 0.01 µM, first compound 0.0316 µM): 99.7%
- viability, T/C (second compound 0.01 µM, first compound 0.1 µM): 95.2%
- viability, T/C (second compound 0.01 µM, first compound 0.316 µM): 76.5%
- viability, T/C (second compound 0.01 µM, first compound 1 µM): 74.7%
- viability, T/C [1]: 99%
- viability, T/C [2]: 99.1%
- viability, T/C [3]: 88.3%
- viability, T/C [4]: 68.5%
- viability, T/C (second compound 0.0316 µM, first compound 0.316 µM): 57.5%
- viability, T/C (second compound 0.0316 µM, first compound 1 µM): 61.5%
- viability, T/C [5]: 81%
- viability, T/C [6]: 73.2%
- viability, T/C [7]: 57.5%
- viability, T/C [8]: 40.8%
- viability, T/C (second compound 0.1 µM, first compound 0.316 µM): 40.7%
- viability, T/C (second compound 0.1 µM, first compound 1 µM): 50.5%
- viability, T/C [9]: 48.4%
- viability, T/C [10]: 41.7%
- viability, T/C [11]: 41.5%
- viability, T/C [12]: 27.4%
- viability, T/C (second compound 0.316 µM, first compound 0.316 µM): 41.7%
- viability, T/C (second compound 0.316 µM, first compound 1 µM): 52.4%
- viability, T/C [13]: 27.7%
- viability, T/C [14]: 32.4%
- viability, T/C [15]: 23.4%
- viability, T/C [16]: 24.3%
- viability, T/C (second compound 1 µM, first compound 0.316 µM): 34.9%
- viability, T/C (second compound 1 µM, first compound 1 µM): 54.8%

Structure (SMILES): CC(=O)c1c(C)c2cnc(Nc3ccc(N4CCNCC4)cn3)nc2n(C2CCCC2)c1=O + CC(Nc1ncnc2nc[nH]c12)c1cc2cccc(Cl)c2c(=O)n1-c1ccccc1
- IC50 (second compound 0.0316 µM): > 100 nM
- IC50 (second compound 0.1 µM): > 100 nM
- IC50 (second compound 0.316 µM): > 100 nM
- IC50 (second compound 1 µM): > 100 nM
- IC50 (second compound 3.16 µM): > 100 nM
- IC50 (second compound 10 µM): > 100 nM
- viability, T/C (second compound 0.0316 µM, first compound 0.000316 µM): 107%
- viability, T/C (second compound 0.0316 µM, first compound 0.001 µM): 96.8%
- viability, T/C [1]: 103%
- viability, T/C [2]: 113%
- viability, T/C [3]: 99.7%
- viability, T/C [4]: 122%
- viability, T/C (second compound 0.1 µM, first compound 0.000316 µM): 93%
- viability, T/C (second compound 0.1 µM, first compound 0.001 µM): 91.9%
- viability, T/C [5]: 106%
- viability, T/C [6]: 101%
- viability, T/C [7]: 105%
- viability, T/C [8]: 111%
- viability, T/C (second compound 0.316 µM, first compound 0.000316 µM): 94.9%
- viability, T/C (second compound 0.316 µM, first compound 0.001 µM): 102%
- viability, T/C [9]: 99.9%
- viability, T/C [10]: 103%
- viability, T/C [11]: 107%
- viability, T/C [12]: 119%
- viability, T/C (second compound 1 µM, first compound 0.000316 µM): 94.4%
- viability, T/C (second compound 1 µM, first compound 0.001 µM): 103%
- viability, T/C [13]: 102%
- viability, T/C [14]: 104%
- viability, T/C [15]: 116%
- viability, T/C [16]: 109%
- viability, T/C (second compound 3.16 µM, first compound 0.000316 µM): 94.6%
- viability, T/C (second compound 3.16 µM, first compound 0.001 µM): 116%
- viability, T/C (second compound 3.16 µM, first compound 0.00316 µM): 113%
- viability, T/C (second compound 3.16 µM, first compound 0.01 µM): 103%
- viability, T/C (second compound 3.16 µM, first compound 0.0316 µM): 99.2%
- viability, T/C (second compound 3.16 µM, first compound 0.1 µM): 110%
- viability, T/C (second compound 10 µM, first compound 0.000316 µM): 97.7%
- viability, T/C (second compound 10 µM, first compound 0.001 µM): 99.8%
- viability, T/C (second compound 10 µM, first compound 0.00316 µM): 94.7%
- viability, T/C (second compound 10 µM, first compound 0.01 µM): 89.5%
- viability, T/C (second compound 10 µM, first compound 0.0316 µM): 90.3%
- viability, T/C (second compound 10 µM, first compound 0.1 µM): 83%

Reference: PubChem BioAssay AID1963977 (Molecular Pharmacology Branch, DTP, NCI, 2024)
